In brackets after ≈: the same amount, converted by molar mass. Read-outs that look alike come from different tables or passages of the source. Numbered stars: 1 amine (or outer) side, 2 acyl side, 3 side chain; on linkers, the order of the positions; unused ones are H or OH. Bridge positions count the residues as written; N and C are the ends. Side chains are listed from the residue outwards. Peptide text beside a SMILES is read from it. * marks the point of attachment. C20 diacid = O=C(O)CCCCCCCCCCCCCCCCCCC(=O)*; γGlu = O=C(O)[C@H](CCC(=O)[*:2])N[*:1]
Key:
Sprague Dawley (SD) rats = experiment: ASSAY (I) efficacy testing on appetite (food intake) using an ad libitum fed rat model; type: in vivo; details: rat, 30 nmol/kg
Outline: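 Ad libitum fed SD rats (200–250 g) were housed singly on a reversed light/dark cycle and given one 0.01–3 mg/kg dose ip, po or sc just before lights-off, with 5–8 per dose group plus vehicle controls. Food intake was recorded hourly for 7 h, then at 24 h and sometimes 48 h; Grubbs outliers were excluded.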

[1] = ASSAY (IV) determination of solubility; type: physicochemical
Outline: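 Dissolve polypeptide in water ([…] stock); combine 1:1 with each 100 mM buffer (glycylglycine pH 3.0/4.0/5.0; bistrispropane pH 6.0/6.5/7.0/7.5/8.0); hold 18 hours at room temperature; centrifuge; quantify polypeptide by UPLC.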

[2] = target: T1, human amylin receptor (membranes from Amylin 3(a)/CRE-luc cells) (Homo sapiens, UniProt O60896+P30988); experiment: ASSAY (V) binding to the human amylin receptor (SPA, 125I-rat amylin); details: for IC50: Table 4, read-out: hAmylin-R bind IC50;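 for all read-outs here: competition binding of cell membranes (35 ng/µL) mixed with SPA beads in 384-well plates at 40 µL total volume, read by scintillation counting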
T1 construct: expressed in transfected cells
T1 sequence (P30988 25-474): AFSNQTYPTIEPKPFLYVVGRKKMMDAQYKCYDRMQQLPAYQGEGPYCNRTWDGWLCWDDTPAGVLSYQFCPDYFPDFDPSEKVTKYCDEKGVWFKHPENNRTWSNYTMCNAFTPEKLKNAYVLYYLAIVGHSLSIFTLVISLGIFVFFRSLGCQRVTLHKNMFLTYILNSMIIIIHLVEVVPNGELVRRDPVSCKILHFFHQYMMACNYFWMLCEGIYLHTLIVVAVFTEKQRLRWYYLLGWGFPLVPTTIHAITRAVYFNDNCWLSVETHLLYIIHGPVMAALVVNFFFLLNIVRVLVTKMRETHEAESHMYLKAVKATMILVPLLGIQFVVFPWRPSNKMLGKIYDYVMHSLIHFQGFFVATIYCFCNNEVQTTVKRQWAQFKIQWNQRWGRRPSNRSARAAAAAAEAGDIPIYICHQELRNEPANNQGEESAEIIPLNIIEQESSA
T1 sequence (O60896 24-148 partner): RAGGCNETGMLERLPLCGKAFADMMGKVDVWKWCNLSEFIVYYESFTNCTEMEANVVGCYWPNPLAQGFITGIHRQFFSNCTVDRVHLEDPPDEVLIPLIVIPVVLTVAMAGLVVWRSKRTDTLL

[3] = target: T2, rat amylin receptor (rat calcitonin receptor + rat RAMP 3) (Rattus norvegicus, UniProt P32214+Q9JJ73); experiment: ASSAY (VI) binding to the rat amylin receptor; details: for IC50: binding to rat amylin receptor, read-out: rAmylin-R bind IC50
T2 construct: expressed in transfected cells; host or cells: BHK tk'ts 13 (transient, FuGENE 6), membranes
T2 sequence (P32214 25-479 isoform P32214-2 limits assumed): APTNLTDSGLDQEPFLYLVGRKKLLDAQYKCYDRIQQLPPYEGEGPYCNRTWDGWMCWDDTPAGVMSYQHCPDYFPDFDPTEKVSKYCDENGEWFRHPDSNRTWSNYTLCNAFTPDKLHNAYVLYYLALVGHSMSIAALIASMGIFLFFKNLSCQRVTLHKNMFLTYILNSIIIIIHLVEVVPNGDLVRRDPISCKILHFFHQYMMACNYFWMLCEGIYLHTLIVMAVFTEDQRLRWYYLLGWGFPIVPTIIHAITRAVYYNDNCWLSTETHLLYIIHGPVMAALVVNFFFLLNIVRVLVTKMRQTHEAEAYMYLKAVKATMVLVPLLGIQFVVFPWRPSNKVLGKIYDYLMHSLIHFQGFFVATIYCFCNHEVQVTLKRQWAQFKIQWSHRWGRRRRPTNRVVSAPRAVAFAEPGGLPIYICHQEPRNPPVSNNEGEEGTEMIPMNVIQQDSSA
T2 sequence (Q9JJ73 23-147 partner): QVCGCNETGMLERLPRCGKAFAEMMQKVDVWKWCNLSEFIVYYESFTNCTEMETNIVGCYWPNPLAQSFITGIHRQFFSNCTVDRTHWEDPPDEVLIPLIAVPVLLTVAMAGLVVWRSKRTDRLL
Outline: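 Binding to the rat amylin receptor was determined with membrane preparations. The receptor was expressed by transiently transfecting BHK tk′ts 13 cells with rat calcitonin receptor, using FuGENE® 6 (Roche) according to the manufacturer's recommendations. Roughly 48 hours later the cells were harvested and their membranes isolated.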

rat calcitonin receptor = target: T3, rat calcitonin receptor (Rattus norvegicus, UniProt P32214); experiment: ASSAY (VIII) binding to the rat calcitonin receptor; details: Table 7, read-out: rCTR bind IC50
T3 construct: expressed in transfected cells; host or cells: BHK tk'ts 13 (transient, FuGENE 6), membranes
T3 sequence (P32214 25-479 isoform P32214-2 limits assumed): T2 sequence (P32214 25-479 isoform P32214-2 limits assumed)
Outline: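 Rat calcitonin receptor is expressed transiently in BHK tk′ts 13 cells cultured in DMEM with 10% FBS. Roughly two days (approximately 48 hours) post-transfection, cells are harvested for membrane preparation.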

[4] = bistrispropane buffer, pH 6.5, read-out: Solubility pH 6.5 Concentration
[5] = bistrispropane buffer, pH 7.5, read-out: Solubility pH 7.5 Concentration
[6] = bistrispropane buffer, pH 6.0, read-out: Solubility pH 6.0 Concentration
[7] = bistrispropane buffer, pH 7.0, read-out: Solubility pH 7.0 Concentration
[8] = bistrispropane buffer, pH 8.0, read-out: Solubility pH 8.0 Concentration
[9] = glycylglycine buffer, pH 3.0, read-out: Solubility pH 3.0 Concentration
[10] = glycylglycine buffer, pH 4.0, read-out: Solubility pH 4.0 Concentration
[11] = glycylglycine buffer, pH 5.0, read-out: Solubility pH 5.0 Concentration
[12] = Table 5, selectivity, hCTR bind IC50 / hAmylin-R bind IC50
[13] = Table 5a, selectivity, hCTR bind IC50 / hAmylin-R bind IC50
[14] = Table 5b, selectivity, hCTR bind IC50 / hAmylin-R bind IC50
[15] = Table 5c, selectivity, hCTR bind IC50 / hAmylin-R bind IC50
[16] = Table 7, human binding selectivity, included for comparison
[17] = Table 7a (preferred compounds), human binding selectivity, included for comparison
[18] = ratio of human calcitonin receptor binding IC50 to human amylin receptor binding IC50
[19] = Table 7, rat binding selectivity, rCTR IC50 / rAmylin-R IC50
[20] = Table 7a (preferred compounds), rat binding selectivity, rCTR IC50 / rAmylin-R IC50
[21] = ratio of rCTR bind IC50 to rAmylin-R bind IC50

Structure (SMILES) | Food intake reduction 0-24 h 30 nmol/kg (%) (Sprague Dawley (SD) rats) | Food intake reduction 24-48 h 30 nmol/kg (%) (Sprague Dawley (SD) rats) | solubility at 18 h [1, 4] [µM] | solubility at 18 h [1, 5] [µM] | solubility at 18 h [1, 6] [µM] | solubility at 18 h [1, 7] [µM] | solubility at 18 h [1, 8] [µM] | solubility at 18 h [1, 9] [µM] | solubility at 18 h [1, 10] [µM] | solubility at 18 h [1, 11] [µM] | Ratio hCT/hAmylin binding [2, 12] | Ratio hCT/hAmylin binding [2, 13] | Ratio hCT/hAmylin binding [2, 14] | Ratio hCT/hAmylin binding [2, 15] | Ratio hCT/hAmylin binding [2, 16] | Ratio hCT/hAmylin binding [2, 17] | Ratio hCT/hAmylin binding [2, 18] | IC50 ([3]; Table 7) [nM] | Ratio rCT/rAmylin binding [3, 19] | Ratio rCT/rAmylin binding [3, 20] | also measured
CC[C@H](C)[C@H](NC(=O)[C@H](C)NC(=O)CNC(=O)[C@H](Cc1ccccc1)NC(=O)[C@H](CC(N)=O)NC(=O)[C@@H]1CCCN1C(=O)[C@H](CO)NC(=O)[C@H](CO)NC(=O)[C@H](Cc1c[nH]cn1)NC(=O)[C@H](CCCNC(=N)N)NC(=O)[C@H](CC(C)C)NC(=O)[C@H](Cc1ccccc1)NC(=O)[C@H](Cc1c[nH]cn1)NC(=O)[C@H](C)NC(=O)[C@H](CC(C)C)NC(=O)[C@H](CCCNC(=N)N)NC(=O)[C@H](CCC(N)=O)NC(=O)[C@@H](NC(=O)[C@H](C)NC(=O)[C@@H]1CSSC[C@H](NC(=O)[C@@H](N)CCCCNC(=O)CC[C@H](NC(=O)CCCCCCCCCCCCCCCCCCC(=O)O)C(=O)O)C(=O)N[C@@H](CC(N)=O)C(=O)N[C@@H]([C@@H](C)O)C(=O)N[C@@H](C)C(=O)N[C@@H]([C@@H](C)O)C(=O)N1)[C@@H](C)O)C(=O)N1CCC[C@H]1C(=O)N[C@@H](CO)C(=O)N[C@@H](CO)C(=O)N[C@H](C(=O)N1CCC[C@H]1C(=O)N[C@H](C(=O)NCC(=O)N[C@@H](CO)C(=O)N[C@@H](CC(N)=O)C(=O)N[C@H](C(=O)N[C@@H](Cc1ccc(O)cc1)C(N)=O)[C@@H](C)O)C(C)C)[C@@H](C)O [Example 62] (H-K([γGlu-C20 diacid])CNTATCATQRLAHFLRHSSPNFGAIPSSTPVGSNTY-NH2; disulfide 2-7; N-terminus assumed) | 62 | 18 | ≥ 200 | ≥ 200 | ≥ 200 | ≥ 200 | 189 (≈ 829 µg/mL) | ≥ 200 | ≥ 200 | ≥ 200 | 63.0 | 63.0 | 63.0 | 63.0 | 63.0 | 63.0 | 63.0 | 0.42 | 42.8 | 42.8 | IC50 [2]: 0.098 nM; Ratio rCT/rAmylin binding [3, 21]: 42.8; IC50 (rat calcitonin receptor): 18 nM
CC[C@H](C)[C@H](NC(=O)[C@H](C)NC(=O)CNC(=O)[C@H](Cc1ccccc1)NC(=O)[C@H](CC(N)=O)NC(=O)[C@@H]1CCCN1C(=O)[C@H](CO)NC(=O)[C@H](CO)NC(=O)[C@H](Cc1c[nH]cn1)NC(=O)[C@H](CCCNC(=N)N)NC(=O)[C@H](CC(C)C)NC(=O)[C@H](Cc1ccccc1)NC(=O)[C@H](CC(N)=O)NC(=O)[C@H](C)NC(=O)[C@H](CC(C)C)NC(=O)[C@H](CCCNC(=N)N)NC(=O)[C@H](CCC(N)=O)NC(=O)[C@@H](NC(=O)[C@H](C)NC(=O)[C@@H]1CSSC[C@H](NC(=O)[C@H](CCCCN)NC(=O)CC[C@H](NC(=O)CCCCCCCCCCCCCCCCCCC(=O)O)C(=O)O)C(=O)N[C@@H](CC(N)=O)C(=O)N[C@@H]([C@@H](C)O)C(=O)N[C@@H](C)C(=O)N[C@@H]([C@@H](C)O)C(=O)N1)[C@@H](C)O)C(=O)N1CCC[C@H]1C(=O)N[C@@H](CO)C(=O)N[C@@H](CO)C(=O)N[C@H](C(=O)N1CCC[C@H]1C(=O)N[C@H](C(=O)NCC(=O)N[C@@H](CO)C(=O)N[C@@H](CCC(=O)O)C(=O)N[C@H](C(=O)N[C@@H](Cc1ccc(O)cc1)C(N)=O)[C@@H](C)O)C(C)C)[C@@H](C)O [Example 28] ({C20 diacid-γGlu}-KCNTATCATQRLANFLRHSSPNFGAIPSSTPVGSETY-NH2; disulfide 2-7 (inferred)) | 49 | 38 | ≥ 200 | ≥ 200 | ≥ 200 | ≥ 200 | ≥ 200 | ≥ 200 | ≥ 200 | ≥ 200 | 20.5 | 20.5 | 20.5 | 20.5 | 20.5 | 20.5 | 20.5 | 1.22 | 44.9 | 44.9 | IC50 [2]: 0.61 nM; Ratio rCT/rAmylin binding [3, 21]: 44.9; IC50 (rat calcitonin receptor): 54.9 nM
CC[C@H](C)[C@H](NC(=O)[C@H](C)NC(=O)CNC(=O)[C@H](Cc1ccccc1)NC(=O)[C@H](CC(N)=O)NC(=O)[C@@H]1CCCN1C(=O)[C@H](CO)NC(=O)[C@H](CO)NC(=O)[C@H](Cc1c[nH]cn1)NC(=O)[C@H](CCCNC(=N)N)NC(=O)[C@H](CC(C)C)NC(=O)[C@H](Cc1ccccc1)NC(=O)[C@H](Cc1c[nH]cn1)NC(=O)[C@H](C)NC(=O)[C@H](CC(C)C)NC(=O)[C@H](CCCNC(=N)N)NC(=O)[C@H](CCC(N)=O)NC(=O)[C@@H](NC(=O)[C@H](C)NC(=O)[C@@H]1CSSC[C@H](NC(=O)[C@H](CCCCN)NC(=O)CC[C@H](NC(=O)CCCCCCCCCCCCCCCCCCC(=O)O)C(=O)O)C(=O)N[C@@H](CC(N)=O)C(=O)N[C@@H]([C@@H](C)O)C(=O)N[C@@H](C)C(=O)N[C@@H]([C@@H](C)O)C(=O)N1)[C@@H](C)O)C(=O)N1CCC[C@H]1C(=O)N[C@@H](CO)C(=O)N[C@@H](CO)C(=O)N[C@H](C(=O)N[C@@H](CC(N)=O)C(=O)N[C@H](C(=O)NCC(=O)N[C@@H](CO)C(=O)N[C@@H](CCC(=O)O)C(=O)N[C@H](C(=O)N[C@@H](Cc1ccc(O)cc1)C(N)=O)[C@@H](C)O)C(C)C)[C@@H](C)O [Example 30] ({C20 diacid-γGlu}-KCNTATCATQRLAHFLRHSSPNFGAIPSSTNVGSETY-NH2; disulfide 2-7) | 41 | 17 | ≥ 200 | ≥ 200 | ≥ 200 | ≥ 200 | ≥ 200 | ≥ 200 | ≥ 200 | ≥ 200 | 23.6 | 23.6 | 23.6 | 23.6 | 23.6 | 23.6 | 23.6 | 3.14 | 36.1 | 36.1 | Ratio rCT/rAmylin binding [3, 21]: 36.1; IC50 (rat calcitonin receptor): 114 nM
